The nature of data set [1]: The drug is tested on WLS-350 corresponding to human gut metagenome with ENA study accession number: PRJEB37062 and ENA sample accession number: ERS12561789 for biotransformation under anaerobic condition. The drug concentrations were measured over 9 timepoints collected between 0 and 24 hours of incubation by liquid-chromatography-coupled mass spectrometry (LC–MS). As to conditions: 2 µM.

Data set [2] can be described thus: The drug is tested on WLS-039 corresponding to human gut metagenome with ENA study accession number: PRJEB37062 and ENA sample accession number: ERS12561746 for biotransformation under anaerobic condition. The drug concentrations were measured over 9 timepoints collected between 0 and 24 hours of incubation by liquid-chromatography-coupled mass spectrometry (LC–MS). The settings on record: 2 µM.

The conditions of data set [3]: human gut metagenome, 24 h, 2 µM.
The conditions of data set [4]: human gut metagenome, 24 h, 2 µM. This is another data set of the same source.
The conditions of data set [5]: human gut metagenome, 24 h, 2 µM. The source holds these as a separate data set.
Data set [6] in a line: The drug is tested on Z-001 corresponding to mouse gut metagenome with ENA study accession number: PRJEB37062 and ENA sample accession number: ERS12561801 for biotransformation under anaerobic condition. The drug concentrations were measured over 9 timepoints collected between 0 and 24 hours of incubation by liquid-chromatography-coupled mass spectrometry (LC–MS). The settings on record: 2 µM.

For data set [7] the following is noted: human gut metagenome, 24 h, 2 µM. This is another data set of the same source.
Data set [8] is described as follows: The drug is tested on WLS-082 corresponding to human gut metagenome with ENA study accession number: PRJEB37062 and ENA sample accession number: ERS12561751 for biotransformation under anaerobic condition. The drug concentrations were measured over 9 timepoints collected between 0 and 24 hours of incubation by liquid-chromatography-coupled mass spectrometry (LC–MS). As to conditions: 2 µM.

The conditions of data set [9]: human gut metagenome, 24 h, 2 µM. The source holds these as a separate data set.
For data set [10] the following is noted: human gut metagenome, 24 h, 2 µM. The source holds these as a separate data set.
For data set [11] the following is noted: human gut metagenome, 24 h, 2 µM. This is another data set of the same source.
The conditions of data set [12]: human gut metagenome, 24 h, 2 µM. The source holds these as a separate data set.
Data set [13] is described as follows: The drug is tested on WLS-220 corresponding to human gut metagenome with ENA study accession number: PRJEB37062 and ENA sample accession number: ERS12561769 for biotransformation under anaerobic condition. The drug concentrations were measured over 9 timepoints collected between 0 and 24 hours of incubation by liquid-chromatography-coupled mass spectrometry (LC–MS). As to conditions: 2 µM.

For data set [14] the following is noted: human gut metagenome, 24 h, 2 µM. This is another data set of the same source.
The nature of data set [15]: The drug is tested on Z-016 corresponding to mouse gut metagenome with ENA study accession number: PRJEB37062 and ENA sample accession number: ERS12561815 for biotransformation under anaerobic condition. The drug concentrations were measured over 9 timepoints collected between 0 and 24 hours of incubation by liquid-chromatography-coupled mass spectrometry (LC–MS). As to conditions: 2 µM.

The nature of data set [16]: The drug is tested on Z-021 corresponding to metagenome with ENA study accession number: PRJEB37062 and ENA sample accession number: ERS12561820 for biotransformation under anaerobic condition. The drug concentrations were measured over 9 timepoints collected between 0 and 24 hours of incubation by liquid-chromatography-coupled mass spectrometry (LC–MS). As to conditions: 2 µM.

Molecules are shown by their SMILES.
Further: call rule not given here.

Turning to `CC(=O)O[C@]1(C(C)=O)CC[C@H]2[C@@H]3C=C(Cl)C4=CC(=O)[C@@H]5C[C@@H]5[C@]4(C)[C@H]3CC[C@@]21C` [CYPROTERONE ACETATE], the “Bacterial Biotransformation” value in [1], in data set [2], in data set [3], in data set [4], in [5] and in [6] was “Compound metabolized” in each case. Besides, the “Bacterial Biotransformation” value in data set [7] is “Compound metabolized”; in data set [8] it was “Compound NOT metabolized”; in data set [9], “Compound metabolized”; in data set [10] it was “Compound metabolized”; in [11], “Compound NOT metabolized”; in [12], “Compound metabolized”. For the same compound, the “Bacterial Biotransformation” value in data set [13] and in data set [14] was “Compound metabolized” in each case.

Turning to `COC(=O)C1=C(C)NC(C)=C(C(=O)OC(C)C)C1c1cccc2nonc12` (stereo unspecified) [ISRADIPINE], the “Bacterial Biotransformation” value in [1] is listed as “Compound metabolized”; in [3] it was “Compound metabolized”; in data set [4], “Compound metabolized”; in data set [5], “Compound metabolized”; in data set [6], “Compound NOT metabolized”; in data set [7], “Compound metabolized”. The “Bacterial Biotransformation” value in data set [8] is recorded as “Compound metabolized”; in data set [9], “Compound metabolized”; in data set [10] it was “Compound metabolized”; in data set [11], “Compound NOT metabolized”; in [12] it was “Compound metabolized”; in data set [13], “Compound metabolized”. Moreover, in [14], the “Bacterial Biotransformation” value is recorded as “Compound metabolized”.

In the case of `Cc1ccc(/C(=C\CN2CCCC2)c2ccccn2)cc1` [TRIPROLIDINE], the “Bacterial Biotransformation” value in [1], in data set [15], in [16], in data set [2], in data set [3] and in [4] was “Compound NOT metabolized” throughout. For the same compound, the “Bacterial Biotransformation” value in data set [5] is “Compound NOT metabolized”; in data set [6], “Compound NOT metabolized”; in [7], “Compound NOT metabolized”; in data set [8], “Compound NOT metabolized”; in [9], “Compound metabolized”; in [10], “Compound metabolized”. Moreover, the “Bacterial Biotransformation” value in data set [11], in data set [12], in data set [13] and in [14] was “Compound NOT metabolized” each time.

Take `CS(=O)(=O)O.O.O.O.O=C1Cc2cc(CCN3CCN(c4nsc5ccccc45)CC3)c(Cl)cc2N1` [ZIPRASIDONE MESYLATE]: the “Bacterial Biotransformation” value in [1] is on record as “Compound metabolized”; in data set [2], “Compound metabolized”; in [3], “Compound metabolized”; in data set [4], “Compound metabolized”; in data set [5], “Compound metabolized”; in data set [7], “Compound NOT metabolized”. The “Bacterial Biotransformation” value is reported as “Compound metabolized” in data set [8]; “Compound metabolized” in data set [9]; “Compound metabolized” in data set [10]; “Compound NOT metabolized” in data set [11]; “Compound NOT metabolized” in [12]; “Compound metabolized” in [13]. In data set [14], the “Bacterial Biotransformation” value is “Compound metabolized”.
